Data set [1] has as its system Rattus norvegicus. Description: Antithrombotic activity in Wistar rat model assessed as thrombus weight at 10 nmol/kg, po by polyethylene tube based method. Format: functional.
Data set [2] has as its system Rattus norvegicus. The experiment in a line: Antithrombotic activity in Wistar rat model assessed as thrombus weight at 1 nmol/kg, po by polyethylene tube based method. The format is functional.
The test system of data set [3] is Platelet. The experiment in a line: Anti-platelet aggregation activity in Sprague-Dawley rat platelet rich plasma assessed as inhibition of ADP-induced aggregation preincubated with compound followed by ADP addition measured after 5 mins by two channel chronology aggregometry. Format: functional, cell-based.
The test system of data set [4] is Platelet. Description: Anti-platelet aggregation activity in Sprague-Dawley rat platelet rich plasma assessed as inhibition of PAF-induced aggregation preincubated with compound followed by PAF addition measured after 5 mins by two channel chronology aggregometry. Format: functional, cell-based.
Data set [5] can be described thus: Anti-platelet aggregation activity in Sprague-Dawley rat platelet rich plasma assessed as inhibition of TH-induced aggregation preincubated with compound followed by TH addition measured after 5 mins by two channel chronology aggregometry. The format is functional, cell-based.
Data set [6] relates to Platelet. The experiment in a line: Anti-platelet aggregation activity in Sprague-Dawley rat platelet rich plasma assessed as inhibition of AA-induced aggregation preincubated with compound followed by AA addition measured after 5 mins by two channel chronology aggregometry. The format is functional, cell-based.
A short description of data set [7]: Toxicity in rat thrombosis model assessed as change in tail bleeding time at 0.001 nmol/kg, po by tail bleeding time assay. Conditions: in vivo. The format is organism-based.
Data set [8] is described as follows: Cytotoxicity activity against human L02 cells assessed as cell growth inhibition incubated for 48 hrs by CCK-8 assay. The format is toxicity, cell-based. On the technique in general: Tetrazolium dyes change colour on reduction, which living cells bring about.
The nature of data set [9]: Toxicity in rat thrombosis model assessed as change in tail bleeding time at 1 nmol/kg, po by tail bleeding time assay. The format is organism-based. The note with it: in vivo.
Data set [10] is described as follows: Toxicity in rat thrombosis model assessed as change in tail bleeding time at 0.01 nmol/kg, po by tail bleeding time assay. Format: organism-based. The note with it: in vivo.
Data set [11] can be described thus: Cytotoxicity activity against human NHDF cells assessed as cell growth inhibition incubated for 48 hrs by CCK-8 assay. Format: toxicity, cell-based.
A short description of data set [12]: Toxicity in rat thrombosis model assessed as bleeding in brain at 0.001 to 1 nmol/kg, po. Format: tissue-based. Conditions: in vivo, dose 0.001-1 nmol/kg.
Data set [13] is described as follows: Toxicity in rat thrombosis model assessed as bleeding in inferior cavity at 0.001 to 1 nmol/kg, po. Conditions: in vivo, dose 0.001-1 nmol/kg.
Data set [14] is described as follows: Toxicity in rat thrombosis model assessed as bleeding in thoracic cavity at 0.001 to 1 nmol/kg, po. Conditions: in vivo, dose 0.001-1 nmol/kg.
Data set [15] can be described thus: Cytotoxicity activity against human NCM460 cells assessed as cell growth inhibition incubated for 48 hrs by CCK-8 assay. Format: toxicity, cell-based.
The subject of data set [16] is Rattus norvegicus. The experiment in a line: Anti-arterial thrombosis activity in po dosed male Wister rat thrombogenesis model assessed as thrombus weight by polyethylene tube based method. Conditions: dose 0.001-1 nmol/kg. The format is functional, organism-based.

The source of these data is ChEMBL document CHEMBL5352399, “(1R,3S)-THCCA-Asn: To show the discovery of selective inhibitor of thrombin by successfully combining virtual screening and biological assay” (Eur J Med Chem, 2022).

The source made the active and inactive calls. The rule behind the calls is not given here. Where only a bound is given, the exact number is not on record here.

As for `COC(=O)c1cc([C@H]2N[C@H](C(=O)O)Cc3c2[nH]c2ccccc32)ccc1O`, the Activity with Rattus norvegicus [1] is reported as 23.17 mg.
The term IC50 denotes the concentration needed to halve the response being measured. Regarding `COC(=O)c1cc([C@H]2N[C@H](C(=O)N[C@@H](CCC(=O)O)C(=O)O)Cc3c2[nH]c2ccccc32)ccc1O`, the Activity in the data set with Rattus norvegicus [2] was 23.69 mg. Besides, the inhibition result with Platelet [3], in the data set with Platelet [4] and in the data set on Platelet [6] was “inactive” each time. In addition, the IC50 in data set [5] was 1.75 µM.
Turning to `COC(=O)c1cc([C@H]2N[C@H](C(=O)N[C@@H](Cc3ccccc3)C(=O)O)Cc3c2[nH]c2ccccc32)ccc1O`, the Activity in the data set with Rattus norvegicus [2] came out at 23.69 mg. In addition, the inhibition entry in the data set on Platelet [3], in the data set with Platelet [4] and in the data set on Platelet [6] was “inactive” each time. The IC50 in [5] stood at 1.75 µM.
Turning to `COC(=O)c1cc([C@H]2N[C@H](C(=O)N[C@@H](CO)C(=O)O)Cc3c2[nH]c2ccccc32)ccc1O`, in the data set on Rattus norvegicus [2], the Activity stood at 19.19 mg. In addition, the inhibition entry with Platelet [3], with Platelet [4] and with Platelet [6] was “inactive” each time. Further, the half-maximal inhibitory concentration (IC50) in data set [5] turned out to be 0.07 µM.
For `COC(=O)c1cc([C@H]2N[C@H](C(=O)N[C@@H](CCCCN)C(=O)O)Cc3c2[nH]c2ccccc32)ccc1O`, the Activity in the data set with Rattus norvegicus [2] is given as 19.19 mg. The inhibition entry with Platelet [3], in the data set on Platelet [4] and in the data set with Platelet [6] was “inactive” in each case. The IC50 in data set [5] was found to be 0.07 µM.
As to `COC(=O)c1cc([C@H]2N[C@H](C(=O)NCC(=O)O)Cc3c2[nH]c2ccccc32)ccc1O`, the Activity with Rattus norvegicus [2] amounted to 23.69 mg. The inhibition entry in the data set with Platelet [3], in the data set with Platelet [4] and in the data set on Platelet [6] was “inactive” each time. The IC50 in data set [5] worked out at 1.75 µM.
`COC(=O)c1cc([C@H]2N[C@H](C(=O)N[C@@H](Cc3c[nH]c4ccccc34)C(=O)O)Cc3c2[nH]c2ccccc32)ccc1O`: the Activity with Rattus norvegicus [2] was 21.66 mg. Besides, the inhibition entry with Platelet [3], in the data set with Platelet [4] and in the data set with Platelet [6] was “inactive” in each case. Further, the IC50 in data set [5] is 0.23 µM.
For `COC(=O)c1cc([C@H]2N[C@H](C(=O)N[C@@H](CCC(N)=O)C(=O)O)Cc3c2[nH]c2ccccc32)ccc1O`, the Activity in the data set with Rattus norvegicus [2] was 21.66 mg. Also, the inhibition entry in the data set on Platelet [3], with Platelet [4] and with Platelet [6] was “inactive” throughout. Besides, the IC50 in [5] worked out at 0.23 µM.
With `COC(=O)c1cc([C@H]2N[C@H](C(=O)N[C@@H](CCCNC(=N)N)C(=O)O)Cc3c2[nH]c2ccccc32)ccc1O`, the Activity with Rattus norvegicus [2] was 21.66 mg. For the same compound, the inhibition entry with Platelet [3], with Platelet [4] and in the data set with Platelet [6] was “inactive” each time. In addition, the half-maximal inhibitory concentration (IC50) in data set [5] is 0.23 µM.
As for `CC[C@H](C)[C@H](NC(=O)[C@@H]1Cc2c([nH]c3ccccc23)[C@@H](c2ccc(O)c(C(=O)OC)c2)N1)C(=O)O`, the Activity with Rattus norvegicus [2] worked out at 21.66 mg. In addition, the inhibition result with Platelet [3], in the data set with Platelet [4] and in the data set on Platelet [6] was “inactive” throughout. Also, the IC50 in [5] came to 0.23 µM.
With `COC(=O)c1cc([C@H]2N[C@H](C(=O)N[C@@H](C)C(=O)O)Cc3c2[nH]c2ccccc32)ccc1O`, the Activity in the data set with Rattus norvegicus [2] amounted to 21.66 mg. The inhibition result in the data set with Platelet [3], with Platelet [4] and in the data set with Platelet [6] was “inactive” in each case. Also, the IC50 in data set [5] was 0.23 µM.
For the compound `COC(=O)c1cc([C@H]2N[C@H](C(=O)N[C@@H](Cc3ccc(O)cc3)C(=O)O)Cc3c2[nH]c2ccccc32)ccc1O`, the Activity with Rattus norvegicus [2] is listed as 19.19 mg. The inhibition entry with Platelet [3], with Platelet [4] and in the data set on Platelet [6] was “inactive” throughout. Also, the IC50 in data set [5] was 0.07 µM.
For the compound `COC(=O)c1cc([C@H]2N[C@H](C(=O)N[C@H](C(=O)O)C(C)C)Cc3c2[nH]c2ccccc32)ccc1O`, the Activity with Rattus norvegicus [2] was found to be 23.69 mg. The inhibition result in the data set on Platelet [3], in the data set on Platelet [4] and with Platelet [6] was “inactive” each time. Also, the half-inhibitory concentration (IC50) in data set [5] amounted to 0.23 µM.
For the compound `COC(=O)c1cc([C@H]2N[C@H](C(=O)N[C@@H](CC(=O)O)C(=O)O)Cc3c2[nH]c2ccccc32)ccc1O`, in the data set on Rattus norvegicus [2], the Activity was 23.69 mg. Moreover, the inhibition entry in the data set with Platelet [3], in the data set on Platelet [4] and in the data set with Platelet [6] was “inactive” throughout. Also, the IC50 in [5] was 1.75 µM.
In the case of `COC(=O)c1cc([C@H]2N[C@H](C(=O)N[C@H](C(=O)O)[C@@H](C)O)Cc3c2[nH]c2ccccc32)ccc1O`, the Activity with Rattus norvegicus [2] is 23.69 mg. Also, the inhibition result in the data set with Platelet [3], with Platelet [4] and in the data set on Platelet [6] was “inactive” each time. Also, the concentration for half-maximal inhibition (IC50) in data set [5] came out at 1.75 µM.
Consider `COC(=O)c1cc([C@H]2N[C@H](C(=O)N[C@@H](CC(N)=O)C(=O)O)Cc3c2[nH]c2ccccc32)ccc1O`, for which the Activity result in [7] is “Non-Toxic”; in data set [9], “Non-Toxic”; in data set [10], “Non-Toxic”; in data set [12] it was “Non-Toxic”; in the data set on Rattus norvegicus [2] it was 19.19 mg; in data set [13], “Non-Toxic”. Further, the figures for the Activity entry (in data set [14]; in the data set on Rattus norvegicus [16]) were “Non-Toxic” and “Dose-Dependent Effect”, respectively. Also, the IC50 at 48 h in data set [8], in data set [11] and in data set [15] was greater than 125 µM each time. The inhibition entry with Platelet [3], in the data set on Platelet [4] and in the data set with Platelet [6] was “inactive” each time. Besides, in data set [5], the IC50 is 0.07 µM.
Consider `COC(=O)c1cc([C@H]2N[C@H](C(=O)N[C@@H](CC(C)C)C(=O)O)Cc3c2[nH]c2ccccc32)ccc1O`, for which the Activity in the data set on Rattus norvegicus [2] amounted to 23.69 mg. Also, the inhibition entry in the data set on Platelet [3], in the data set on Platelet [4] and in the data set on Platelet [6] was “inactive” throughout. In addition, the concentration for half-maximal inhibition (IC50) in [5] worked out at 1.75 µM.
